# Test system: HEK293T cells carrying the ATF4 luciferase reporter
# Test: ATF4-Luc assay, in vitro model of Vanishing Cell White Matter Disease (VWMD)
# Type: cell-based
# Details: Homo sapiens, HEK-293T, 1 μg/mL tunicamycin, 7 hours, One Glo luminescence
# Summary of the method: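 Reporter cells were stably generated by retroviral transduction and puromycin selection, then seeded at 30,000 cells/well. Next day, cells received 1 μg/mL tunicamycin with 200 nM test compound for 7 h, and luciferase luminescence was read with a one-step reagent. Values reported as EC50.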
row,SMILES,EC50
1,"Cc1ccc2nc(C(=O)NC34CC(NC(=O)COc5ccc(Cl)c(F)c5)(C3)C4)cn2c1 [Compound 787, N-{3-[2-(4-chloro-3-fluorophenoxy)acetamido]bicyclo[1.1.1]pentan-1-yl}-6-methylimidazo[1,2-a]pyridine-2-carboxamide]",> 2 µM
2,"O=C(COc1ccc(Cl)c(F)c1)NC12CC(NC(=O)c3coc(C4CC4)n3)(C1)C2 [Compound 248, N-{3-[2-(4-chloro-3-fluorophenoxy)acetamido]bicyclo[1.1.1]pentan-1-yl}-2-cyclopropyl-1,3-oxazole-4-carboxamide]",0.05 to 0.25 µM
3,"O=C(COc1ccc(Cl)c(F)c1)NC12CC(NC(=O)c3cnc(-c4ccc(C(F)(F)F)nc4)o3)(C1)C2 [Compound 107, N-{3-[2-(4-chloro-3-fluorophenoxy)acetamido]bicyclo[1.1.1]pentan-1-yl}-2-[6-(trifluoromethyl)pyridin-3-yl]-1,3-oxazole-5-carboxamide]",< 0.05 µM
4,"O=C(COc1ccc(Cl)c(F)c1)NC12CC(NC(=O)c3cccc4c3OCO4)(C1)C2 [Compound 240, N-{3-[2-(4-chloro-3-fluorophenoxy)acetamido]bicyclo[1.1.1]pentan-1-yl}-2H-1,3-benzodioxole-4-carboxamide]",1 to 2 µM
5,"O=C(COc1ccc(Cl)c(Cl)c1)NC12CC(NC(=O)c3cc(CCO)ccn3)(C1)C2 [Compound 281, N-{3-[2-(3,4-dichlorophenoxy)acetamido]bicyclo[1.1.1]pentan-1-yl}-4-(2-hydroxyethyl)pyridine-2-carboxamide]",0.05 to 0.25 µM
6,"O=C(COc1ccc(Cl)c(F)c1)NC12CC(NC(=O)c3nc(C4CC4)cs3)(C1)C2 [Compound 590, N-{3-[2-(4-chloro-3-fluorophenoxy)acetamido]bicyclo[1.1.1]pentan-1-yl}-4-cyclopropyl-1,3-thiazole-2-carboxamide]",0.05 to 0.25 µM
7,"O=C(COc1ccc(Cl)c(Cl)c1)NC12CC(NC(=O)c3cnoc3)(C1)C2 [Compound 921, N-{3-[2-(3,4-dichlorophenoxy)acetamido]bicyclo[1.1.1]pentan-1-yl}-1,2-oxazole-4-carboxamide]",1 to 2 µM
8,"O=C(COc1ccc(Cl)c(F)c1)NC12CC(Nc3nc4cc(Cl)ccc4o3)(C1)C2 [Compound 369, N-{3-[(5-chloro-1,3-benzoxazol-2-yl)amino]bicyclo[1.1.1]pentan-1-yl}-2-(4-chloro-3-fluorophenoxy)acetamide]",1 to 2 µM
9,"Cn1cnc2cc(C(=O)NC34CC(NC(=O)COc5ccc(Cl)c(F)c5)(C3)C4)ccc2c1=O [Compound 342, N-{3-[2-(4-chloro-3-fluorophenoxy)acetamido]bicyclo[1.1.1]pentan-1-yl}-3-methyl-4-oxo-3,4-dihydroquinazoline-7-carboxamide]",0.25 to 1 µM
10,"O=C(COc1ccc(Cl)c(F)c1)NC12CCC(NC(=O)c3ccc(OC(F)F)cn3)(C1)C2 [Compound 337, N-{4-[2-(4-chloro-3-fluorophenoxy)acetamido]bicyclo[2.1.1]hexan-1-yl}-5-(difluoromethoxy)pyridine-2-carboxamide]",0.25 to 1 µM
11,"CC(C)c1csc(C(=O)NC23CC(NC(=O)COc4ccc(Cl)c(F)c4)(C2)C3)n1 [Compound 406, N-{3-[2-(4-chloro-3-fluorophenoxy)acetamido]bicyclo[1.1.1]pentan-1-yl}-4-(propan-2-yl)-1,3-thiazole-2-carboxamide]",0.05 to 0.25 µM
12,"O=C(COc1ccc(Cl)c(F)c1)NC12CCC(NC(=O)c3ccc(F)cc3)(CC1)[C@@H](O)C2 [Compound 489, N-{(2S)-4-[2-(4-chloro-3-fluorophenoxy)acetamido]-2-hydroxybicyclo[2.2.2]octan-1-yl}-4-fluorobenzamide]",0.05 to 0.25 µM
13,"CC(=O)Nc1cccc(C(=O)NC23CC(NC(=O)COc4ccc(Cl)c(F)c4)(C2)C3)n1 [Compound 884, 6-acetamido-N-{3-[2-(4-chloro-3-fluorophenoxy)acetamido]bicyclo[1.1.1]pentan-1-yl}pyridine-2-carboxamide]",0.25 to 1 µM
14,"Cc1ccnc(C(=O)NC23CC(NC(=O)COc4ccc(Cl)c(Cl)c4)(C2)C3)c1 [Compound 526, N-{3-[2-(3,4-dichlorophenoxy)acetamido]bicyclo[1.1.1]pentan-1-yl}-4-methylpyridine-2-carboxamide]",0.25 to 1 µM
15,"Cc1nc(C)c(C(=O)NC23CC(NC(=O)COc4ccc(Cl)c(F)c4)(C2)C3)o1 [Compound 847, N-{3-[2-(4-chloro-3-fluorophenoxy)acetamido]bicyclo[1.1.1]pentan-1-yl}-2,4-dimethyl-1,3-oxazole-5-carboxamide]",0.25 to 1 µM
16,"Cc1ccc(C(=O)NC23CC(NC(=O)COc4ccc(Cl)c(F)c4)(C2)C3)o1 [Compound 555, N-{3-[2-(4-chloro-3-fluorophenoxy)acetamido]bicyclo[1.1.1]pentan-1-yl}-5-methylfuran-2-carboxamide]",0.05 to 0.25 µM
17,"O=C(COc1ccc(Cl)c(F)c1)NC12CCC(NC(=O)c3cccc(N4CCOCC4)n3)(CC1)CC2O (stereo not shown) [Compound 942, N-{4-[2-(4-chloro-3-fluorophenoxy)acetamido]-3-hydroxybicyclo[2.2.2]octan-1-yl}-6-(morpholin-4-yl)pyridine-2-carboxamide]",1 to 2 µM

row,SMILES,EC50
1,"COCc1cncc(C(=O)NC23CC(NC(=O)COc4ccc(Cl)c(F)c4)(C2)C3)c1 [Compound 568, N-{3-[2-(4-chloro-3-fluorophenoxy)acetamido]bicyclo[1.1.1]pentan-1-yl}-5-(methoxymethyl)pyridine-3-carboxamide]",0.05 to 0.25 µM
2,"O=C(COc1ccc(Cl)c(F)c1)NC12CC(NC(=O)c3ncc(F)cc3F)(C1)C2 [Compound 910, N-{3-[2-(4-chloro-3-fluorophenoxy)acetamido]bicyclo[1.1.1]pentan-1-yl}-3,5-difluoropyridine-2-carboxamide]",0.05 to 0.25 µM
3,"COc1ccc(C(=O)NC23CC(NC(=O)COc4ccc(Cl)c(F)c4)(C2)C3)nc1 [Compound 141, N-{3-[2-(4-chloro-3-fluorophenoxy)acetamido]bicyclo[1.1.1]pentan-1-yl}-5-methoxypyridine-2-carboxamide]",0.25 to 1 µM
4,"CC(C)Oc1ccc(C(=O)NC23CCC(NC(=O)COc4ccc(Cl)c(F)c4)(CC2)C(O)C3)nc1 (stereo not shown) [Compound 912, N-{4-[2-(4-chloro-3-fluorophenoxy)acetamido]-3-hydroxybicyclo[2.2.2]octan-1-yl}-5-[(propan-2-yl)oxy]pyridine-2-carboxamide]",< 0.05 µM
5,"O=C(COc1ccc(Cl)c(F)c1)NC12CC(NC(=O)c3ccc(Cl)c(F)c3)(C1)C2 [Compound 692, 4-chloro-N-{3-[2-(4-chloro-3-fluorophenoxy)acetamido]bicyclo[1.1.1]pentan-1-yl}-3-fluorobenzamide]",0.05 to 0.25 µM
6,"COc1cccc(F)c1C(=O)NC12CC(NC(=O)COc3ccc(Cl)c(F)c3)(C1)C2 [Compound 528, N-{3-[2-(4-chloro-3-fluorophenoxy)acetamido]bicyclo[1.1.1]pentan-1-yl}-2-fluoro-6-methoxybenzamide]",> 2 µM
7,"O=C(COc1ccc(Cl)c(F)c1)NC12CC(NC(=O)c3ccc(C(F)F)cc3)(C1)C2 [Compound 191, N-{3-[2-(4-chloro-3-fluorophenoxy)acetamido]bicyclo[1.1.1]pentan-1-yl}-4-(difluoromethyl)benzamide]",0.05 to 0.25 µM
8,"Cc1ccc(C(=O)NC23CC(NC(=O)COc4ccc(Cl)c(F)c4)(C2)C3)cc1CO [Compound 452, N-{3-[2-(4-chloro-3-fluorophenoxy)acetamido]bicyclo[1.1.1]pentan-1-yl}-3-(hydroxymethyl)-4-methylbenzamide]",0.25 to 1 µM
9,"O=C(COc1ccc(Cl)c(F)c1)NC12CC(NC(=O)c3cnc4cccnn34)(C1)C2 [Compound 760, N-{3-[2-(4-chloro-3-fluorophenoxy)acetamido]bicyclo[1.1.1]pentan-1-yl}imidazo[1,2-b]pyridazine-3-carboxamide]",> 2 µM
10,"COc1ccc(C(=O)NC23CC(NC(=O)COc4ccc(Cl)c(F)c4)(C2)C3)cc1OC [Compound 302, N-{3-[2-(4-chloro-3-fluorophenoxy)acetamido]bicyclo[1.1.1]pentan-1-yl}-3,4-dimethoxybenzamide]",> 2 µM
11,"NC(=O)c1nccnc1C(=O)NC12CC(NC(=O)COc3ccc(Cl)c(F)c3)(C1)C2 [Compound 853, N-2-{3-[2-(4-chloro-3-fluorophenoxy)acetamido]bicyclo[1.1.1]pentan-1-yl}pyrazine-2,3-dicarboxamide]",> 2 µM
12,"COc1c(F)cccc1C(=O)NC12CC(NC(=O)COc3ccc(Cl)c(F)c3)(C1)C2 [Compound 547, N-{3-[2-(4-chloro-3-fluorophenoxy)acetamido]bicyclo[1.1.1]pentan-1-yl}-3-fluoro-2-methoxybenzamide]",1 to 2 µM
13,"NS(=O)(=O)c1cccc(C(=O)NC23CC(NC(=O)COc4ccc(Cl)c(F)c4)(C2)C3)c1 [Compound 768, N-{3-[2-(4-chloro-3-fluorophenoxy)acetamido]bicyclo[1.1.1]pentan-1-yl}-3-sulfamoylbenzamide]",> 2 µM
14,"O=C(COc1ccc(Cl)c(F)c1)NC12CCC(NC(=O)c3cc(F)ccn3)(CC1)CC2O (stereo not shown) [Compound 936, N-{4-[2-(4-chloro-3-fluorophenoxy)acetamido]-3-hydroxybicyclo[2.2.2]octan-1-yl}-4-fluoropyridine-2-carboxamide]",0.05 to 0.25 µM
15,"O=C(COc1ccc(Cl)c(F)c1)NC12CC(Nc3cncc(N4CCOCC4)n3)(C1)C2 [Compound 744, 2-(4-chloro-3-fluorophenoxy)-N-(3-{[6-(morpholin-4-yl)pyrazin-2-yl]amino}bicyclo[1.1.1]pentan-1-yl)acetamide]",0.25 to 1 µM
16,"O=C(COc1ccc(Cl)c(F)c1)NC12CC(NC(=O)c3ccc4cccnc4n3)(C1)C2 [Compound 669, N-{3-[2-(4-chloro-3-fluorophenoxy)acetamido]bicyclo[1.1.1]pentan-1-yl}-1,8-naphthyridine-2-carboxamide]",0.25 to 1 µM
17,"O=C(COc1ccc2c(c1)OC(F)(F)O2)NC12CC(NC(=O)c3ccc(OC(F)(F)F)nc3)(C1)C2 [Compound 379, N-(3-{2-[(2,2-difluoro-2H-1,3-benzodioxol-5-yl)oxy]acetamido}bicyclo[1.1.1]pentan-1-yl)-6-(trifluoromethoxy)pyridine-3-carboxamide]",0.05 to 0.25 µM

# From patent US10913727B2, “Modulators of the integrated stress pathway” (Calico Life Sciences LLC, priority 2016, dated 2021)
